Literature values in patent US7976869B2, “Fenofibrate tablets” (Laboratoires Fournier S.A., priority 2001, dated 2011).
Read-outs that look alike come from different tables or passages of the source.

Conditions: conventional gelatin capsule form

bioavailability (after a meal): 89% | bioavailability (on an empty stomach): 26%
Compound: CC(C)OC(=O)C(C)(C)Oc1ccc(C(=O)c2ccc(Cl)cc2)cc1 [Fenofibrate]
